Activity calls are given as the source filed them. The calls are words filed in the database; no cut-off is given here.
Key:
Androgen receptor = target: T1, Androgen receptor (Homo sapiens, UniProt P10275)
T1 sequence (P10275 whole entry): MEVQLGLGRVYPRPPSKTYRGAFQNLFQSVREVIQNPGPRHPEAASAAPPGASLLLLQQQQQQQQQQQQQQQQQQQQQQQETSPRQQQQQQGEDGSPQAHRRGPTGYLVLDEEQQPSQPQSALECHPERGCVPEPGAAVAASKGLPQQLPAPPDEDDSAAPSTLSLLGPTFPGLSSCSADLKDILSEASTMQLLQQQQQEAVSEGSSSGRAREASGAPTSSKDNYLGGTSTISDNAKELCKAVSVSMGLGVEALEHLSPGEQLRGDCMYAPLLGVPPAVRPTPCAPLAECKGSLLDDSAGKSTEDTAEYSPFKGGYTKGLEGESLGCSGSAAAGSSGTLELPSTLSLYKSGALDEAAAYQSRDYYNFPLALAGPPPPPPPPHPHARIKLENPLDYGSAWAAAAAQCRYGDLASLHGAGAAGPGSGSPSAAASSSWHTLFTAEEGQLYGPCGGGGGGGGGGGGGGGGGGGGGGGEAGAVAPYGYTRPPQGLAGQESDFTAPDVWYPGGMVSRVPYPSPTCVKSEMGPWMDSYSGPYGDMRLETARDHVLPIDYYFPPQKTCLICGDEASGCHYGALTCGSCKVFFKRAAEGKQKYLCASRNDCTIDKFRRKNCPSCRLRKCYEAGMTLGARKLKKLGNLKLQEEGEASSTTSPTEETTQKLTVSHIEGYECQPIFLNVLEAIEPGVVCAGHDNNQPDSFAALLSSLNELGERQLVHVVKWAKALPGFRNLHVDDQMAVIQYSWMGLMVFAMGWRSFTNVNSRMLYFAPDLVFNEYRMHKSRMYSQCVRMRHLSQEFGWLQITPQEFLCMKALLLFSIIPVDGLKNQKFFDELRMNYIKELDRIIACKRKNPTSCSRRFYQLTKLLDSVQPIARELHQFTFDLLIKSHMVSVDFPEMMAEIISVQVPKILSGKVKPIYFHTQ
Description: Inhibition of AR mediated transcriptional activation using reporter assay

Rattus norvegicus [1] = test: Effect on ventral prostate weight with reference to control in Wistar rat at 10 mg/kg/day, po; assay type: functional, Prostate gland; conditions: for inhibition in vivo at 10 mg/kg/day: Rattus norvegicus, Wistar; for inhibition in vivo at 10 mg/kg/day / inhibition: Prostate gland
Rattus norvegicus [2] = test: Effect on ventral prostate weight with reference to control in Wistar rat at 10 mg/kg/day, po; conditions: Prostate gland
Progesterone receptor = target: T2, Progesterone receptor (Rattus norvegicus, UniProt Q63449); test: Inhibition of rat PR
T2 sequence (Q63449 whole entry): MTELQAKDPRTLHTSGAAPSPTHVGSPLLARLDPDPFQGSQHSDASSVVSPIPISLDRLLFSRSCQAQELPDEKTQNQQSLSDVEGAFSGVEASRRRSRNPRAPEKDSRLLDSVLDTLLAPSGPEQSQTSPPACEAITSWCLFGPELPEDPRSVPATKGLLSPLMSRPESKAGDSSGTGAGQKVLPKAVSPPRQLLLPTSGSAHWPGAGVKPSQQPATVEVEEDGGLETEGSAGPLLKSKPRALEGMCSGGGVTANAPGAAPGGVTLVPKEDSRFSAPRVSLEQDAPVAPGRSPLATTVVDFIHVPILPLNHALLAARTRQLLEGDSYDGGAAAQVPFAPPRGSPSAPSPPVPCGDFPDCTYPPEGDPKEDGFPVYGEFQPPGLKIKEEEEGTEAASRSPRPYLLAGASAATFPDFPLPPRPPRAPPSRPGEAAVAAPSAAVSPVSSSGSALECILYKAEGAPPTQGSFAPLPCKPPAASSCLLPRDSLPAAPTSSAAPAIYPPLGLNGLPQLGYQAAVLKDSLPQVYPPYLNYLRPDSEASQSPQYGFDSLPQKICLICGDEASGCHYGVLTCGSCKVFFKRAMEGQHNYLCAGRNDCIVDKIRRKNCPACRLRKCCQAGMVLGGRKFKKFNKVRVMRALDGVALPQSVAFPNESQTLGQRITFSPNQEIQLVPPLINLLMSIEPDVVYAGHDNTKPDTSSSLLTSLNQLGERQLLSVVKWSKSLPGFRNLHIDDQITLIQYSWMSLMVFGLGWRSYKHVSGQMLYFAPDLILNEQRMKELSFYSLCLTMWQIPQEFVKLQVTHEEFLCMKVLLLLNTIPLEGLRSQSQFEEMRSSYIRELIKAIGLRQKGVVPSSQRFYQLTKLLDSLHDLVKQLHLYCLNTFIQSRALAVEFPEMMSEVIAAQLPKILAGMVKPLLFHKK

Glucocorticoid receptor = target: T3, Glucocorticoid receptor (Homo sapiens, UniProt P04150); test: Inhibition of human GR
T3 sequence (P04150 whole entry): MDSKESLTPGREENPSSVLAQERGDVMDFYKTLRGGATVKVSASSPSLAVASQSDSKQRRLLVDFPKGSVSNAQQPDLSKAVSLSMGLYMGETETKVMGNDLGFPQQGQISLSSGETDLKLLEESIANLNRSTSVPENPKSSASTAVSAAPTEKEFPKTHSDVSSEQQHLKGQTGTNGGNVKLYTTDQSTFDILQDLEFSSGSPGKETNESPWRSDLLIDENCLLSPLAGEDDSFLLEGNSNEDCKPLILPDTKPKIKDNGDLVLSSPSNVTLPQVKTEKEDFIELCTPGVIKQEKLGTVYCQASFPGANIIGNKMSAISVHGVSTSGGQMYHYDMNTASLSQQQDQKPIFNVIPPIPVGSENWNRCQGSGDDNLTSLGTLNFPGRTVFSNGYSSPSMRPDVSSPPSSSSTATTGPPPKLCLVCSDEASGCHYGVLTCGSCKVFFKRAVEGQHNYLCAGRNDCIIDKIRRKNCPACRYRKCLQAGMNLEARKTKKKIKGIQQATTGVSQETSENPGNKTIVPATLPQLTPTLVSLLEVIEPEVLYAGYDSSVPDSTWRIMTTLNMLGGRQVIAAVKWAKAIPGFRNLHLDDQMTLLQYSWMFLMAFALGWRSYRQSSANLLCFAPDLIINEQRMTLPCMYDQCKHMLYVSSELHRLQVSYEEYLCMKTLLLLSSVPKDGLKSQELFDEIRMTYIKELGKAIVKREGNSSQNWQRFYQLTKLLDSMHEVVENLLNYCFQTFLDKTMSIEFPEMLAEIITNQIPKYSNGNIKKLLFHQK

[3] = Cmax in rat plasma at 3 mg/kg, po; assay type: ADME, organism-based; set-up: dose 3 mg/kg, route oral
[4] = AUC (0-72)hrs in rat plasma at 3 mg/kg, po; assay type: ADME, organism-based; set-up: time < 72 hr, dose 3 mg/kg, route oral
[5] = Half life in rat plasma at 3 mg/kg, po; assay type: ADME, organism-based; set-up: dose 3 mg/kg, route oral
[6] = Oral clearance in rat at 3 mg/kg, po; assay type: ADME, organism-based; set-up: dose 3 mg/kg, route oral; conditions: in vivo
[7] = Cmax in rat ventral prostate at 3 mg/kg, po; assay type: ADME, organism-based, Prostate gland; set-up: dose 3 mg/kg, route oral
[8] = AUC (0-72)hrs in rat ventral prostate at 3 mg/kg, po; assay type: ADME, organism-based, Prostate gland; set-up: time < 72 hr, dose 3 mg/kg, route oral
[9] = Half life in rat ventral prostate at 3 mg/kg, po; assay type: ADME, organism-based, Prostate gland; set-up: dose 3 mg/kg, route oral
[10] = Oral clearance in rat ventral prostate at 3 mg/kg, po; assay type: ADME, organism-based, Prostate gland; set-up: dose 3 mg/kg, route oral
[11] = Cmax in rat hypothalamus at 3 mg/kg, po; assay type: ADME, organism-based; set-up: dose 3 mg/kg, route oral
[12] = AUC (0-72)hrs in rat hypothalamus at 3 mg/kg, po; assay type: ADME, organism-based; set-up: time < 72 hr, dose 3 mg/kg, route oral
[13] = Half life in rat hypothalamus at 3 mg/kg, po; assay type: ADME, organism-based; set-up: dose 3 mg/kg, route oral
[14] = Oral clearance in rat hypothalamus at 3 mg/kg, po; assay type: ADME, organism-based; set-up: dose 3 mg/kg, route oral
Rattus norvegicus [15] = test: Effect on ventral prostate weight with reference to control in Wistar rat at 100 mg/kg/day; assay type: ADME, organism-based, Prostate gland; conditions: in vivo

| SMILES | IC50 (Androgen receptor) [nM] | inhibition in vivo at 10 mg/kg/day (Rattus norvegicus [1]) [%] | also measured |
| --- | --- | --- | --- |
| C[C@@H]1CN(c2ccc(C#N)c(C(F)(F)F)c2)[C@@H](C)CN1C(=O)Nc1ccccn1 (racemic) | 7800 |  |  |
| C[C@@H]1CN(c2ccc(C#N)c(C(F)(F)F)c2)[C@@H](C)CN1C(=O)Nc1cncnc1 (racemic) | 1000 |  |  |
| CC(=O)c1ccc(NC(=O)N2C[C@H](C)N(c3ccc(C#N)c(C(F)(F)F)c3)C[C@H]2C)cn1 (racemic) | 500 | 43 |  |
| C[C@@H]1CN(c2ccc(C#N)c(C(F)(F)F)c2)[C@@H](C)CN1C(=O)Nc1ccc(O)nc1 (racemic) | > 10000 |  |  |
| Cc1ccncc1NC(=O)N1C[C@H](C)N(c2ccc(C#N)c(C(F)(F)F)c2)C[C@H]1C (racemic) | 330 | 11 |  |
| C[C@@H]1CN(c2ccc(C#N)c(C(F)(F)F)c2)[C@@H](C)CN1C(=O)Nc1ccc(C#N)nc1 (racemic) | 200 | 53 |  |
| COc1ncccc1NC(=O)N1C[C@H](C)N(c2ccc(C#N)c(C(F)(F)F)c2)C[C@H]1C (racemic) | 190 |  | inhibition (Rattus norvegicus [2]): inactive |
| C[C@@H]1CN(c2ccc(C#N)c(C(F)(F)F)c2)[C@@H](C)CN1C(=O)Nc1ccc(Cl)nc1 (racemic) | 730 | 52 |  |
| Cc1cncc(NC(=O)N2C[C@H](C)N(c3ccc(C#N)c(C(F)(F)F)c3)C[C@H]2C)c1 (racemic) | 250 | 11 |  |
| COc1ccc(NC(=O)N2C[C@H](C)N(c3ccc(C#N)c(C(F)(F)F)c3)C[C@H]2C)cn1 (racemic) | 170 | 52 |  |
| COC(=O)c1ccc(NC(=O)N2C[C@H](C)N(c3ccc(C#N)c(C(F)(F)F)c3)C[C@H]2C)cn1 (racemic) | 470 |  | inhibition (Rattus norvegicus [1]): inactive |
| CC(O)(CS(=O)(=O)c1ccc(F)cc1)C(=O)Nc1ccc(C#N)c(C(F)(F)F)c1 (stereo not given) [BICALUTAMIDE] |  |  | Inhibition (Rattus norvegicus [1]): 45%; Ki (Progesterone receptor): 7200 nM; Ki (Glucocorticoid receptor): > 100000 nM; Cmax [3]: 1410 ng/mL; AUC at 72 h [4]: 46900 ng·h/mL; half-life [5]: 22.3 h; CL/F [6]: 0.945 mL/min/kg; Cmax [7]: 1990 ng/mL; AUC at 72 h [8]: 52500 ng·h/mL; half-life [9]: 23.4 h; CL/F [10]: 0.84 mL/min/kg; Cmax [11]: 321 ng/mL; AUC at 72 h [12]: 10600 ng·h/mL; half-life [13]: 27.8 h; CL/F [14]: 3.75 mL/min/kg; Activity (Rattus norvegicus [15]): 55% |
| C[C@@H]1CN(c2ccc(C#N)c(C(F)(F)F)c2)[C@@H](C)CN1C(=O)Nc1ccc(F)cc1F | 200 |  | inhibition (Rattus norvegicus [2]): inactive |
| CC1CN(c2ccc(C#N)c(C(F)(F)F)c2)C(C)CN1C(=O)Nc1ccc(C(F)(F)F)nc1 (racemic) |  | 64 |  |
| C[C@@H]1CN(c2ccc(C#N)c(C(F)(F)F)c2)[C@@H](C)CN1C(=O)Nc1ncccn1 (racemic) | > 10000 |  |  |
| CSc1ccc(NC(=O)N2C[C@H](C)N(c3ccc(C#N)c(C(F)(F)F)c3)C[C@H]2C)cn1 (racemic) | 220 | 36 |  |
| C[C@@H]1CN(c2ccc(C#N)c(C(F)(F)F)c2)[C@@H](C)CN1C(=O)Nc1ccncn1 (racemic) | 4600 |  |  |
| Cc1ccc(NC(=O)N2C[C@H](C)N(c3ccc(C#N)c(C(F)(F)F)c3)C[C@H]2C)cn1 (racemic) | 130 | 58 |  |
| C[C@@H]1CN(c2ccc(C#N)c(C(F)(F)F)c2)[C@@H](C)CN1C(=O)Nc1ccncc1 (racemic) |  | 39 |  |
| C[C@@H]1CN(c2ccc(C#N)c(C(F)(F)F)c2)[C@@H](C)CN1C(=O)Nc1cccnc1 (racemic) | 120 | 42 |  |
| Cc1ncccc1NC(=O)N1C[C@H](C)N(c2ccc(C#N)c(C(F)(F)F)c2)C[C@H]1C (racemic) | 680 |  |  |
| COc1ccncc1NC(=O)N1C[C@H](C)N(c2ccc(C#N)c(C(F)(F)F)c2)C[C@H]1C (racemic) |  |  | inhibition (Rattus norvegicus [1]): inactive |
| C[C@@H]1CN(c2ccc(C#N)c(C(F)(F)F)c2)[C@@H](C)CN1C(=O)Nc1ccc(N)nc1 (racemic) | 370 | 39 |  |
| C[C@@H]1CN(c2ccc(C#N)c(C(F)(F)F)c2)[C@@H](C)CN1C(=O)Nc1ccc[n+]([O-])c1 (racemic) | > 10000 |  |  |
| COc1cncc(NC(=O)N2C[C@H](C)N(c3ccc(C#N)c(C(F)(F)F)c3)C[C@H]2C)c1 (racemic) | 440 | 18 |  |
| C[C@@H]1CN(C(=O)Nc2ccc(C(F)(F)F)nc2)[C@@H](C)CN1c1ccc(C#N)c(C(F)(F)F)c1 |  |  | inhibition (Rattus norvegicus [2]): inactive |

From ChEMBL document CHEMBL1147729, “(+)-(2R,5S)-4-[4-cyano-3-(trifluoromethyl)phenyl]-2,5-dimethyl-N-[6-(trifluoromethyl)pyridin-3-yl]piperazine-1-carboxamide (YM580) as an orally potent and peripherally selective nonsteroidal androgen receptor antagonist” (J Med Chem, 2006)
